A short description of data set [1]: in vivo. Particulars: C57BL/6, mouse, po, 4000 mg/kg.
For data set [2] the following is noted: in vivo, po, 500 mg/kg, 24 h.
The nature of data set [3]: in vivo. Particulars: C57BL/6, mouse, po, 500 mg/kg.
Data set [4] is described as follows: Stability in mouse blood assessed as compound remaining measured at - 80 degC for 4 months.
Data set [5] in a line: Stability in mouse blood assessed as compound remaining measured at 20 degC for 8 hrs.
A short description of data set [6]: Half life in C57BL/6 mouse at 500 mg/kg, ip qd measured after 7 days. Particulars: in vivo, 168 h.
The nature of data set [7]: in vivo. The conditions noted are these: C57BL/6, mouse, ip, 500 mg/kg.
A short description of data set [8]: in vivo. The conditions noted are these: C57BL/6, mouse, po, 4000 mg/kg. This is another data set of the same source.
A short description of data set [9]: in vivo. Particulars: C57BL/6, mouse, ip, 500 mg/kg. This is another data set of the same source.
For data set [10] the following is noted: mouse, in vivo, iv, 500 mg/kg.
For data set [11] the following is noted: C57BL/6, mouse, in vivo, ip, 500 mg/kg, 168 h.
The conditions of data set [12]: in vivo, ip, 500 mg/kg, 168 h.
Data set [13] in a line: Half life in C57BL/6 mouse at 500 mg/kg, po. The conditions noted are these: in vivo.
For data set [14] the following is noted: in vivo, ip, 500 mg/kg, 168 h. This is another data set of the same source.
The conditions of data set [15]: in vivo, ip, 500 mg/kg, 24 h.
Another data set concerns CAL-27. The experiment in a line: cells. It is filed as functional, cell-based. Particulars: Homo sapiens, CAL-27, 72 h.
The conditions of data set [16]: in vivo, po, 4000 mg/kg, 24 h.
The conditions of data set [17]: in vivo, ip, 500 mg/kg, 24 h. The source holds these as a separate data set.
The nature of data set [18]: Half life in C57BL/6 mouse at 4000 mg/kg, po. Particulars: in vivo.
Data set [19] in a line: in vivo. The conditions noted are these: C57BL/6, mouse, po, 500 mg/kg. This is another data set of the same source.
Data set [20] is described as follows: in vivo. The conditions noted are these: C57BL/6, mouse, po, 4000 mg/kg. The source holds these as a separate data set.
Data set [21] in a line: in vivo. Particulars: C57BL/6, mouse, po, 4000 mg/kg. The source holds these as a separate data set.
A short description of data set [22]: in vivo. Particulars: C57BL/6, mouse, po, 500 mg/kg. The source holds these as a separate data set.
Data set [23] is described as follows: Half life in C57BL/6 mouse at 500 mg/kg, iv administered as Antitumor B. Particulars: in vivo.
Data set [24] is described as follows: in vivo. The conditions noted are these: C57BL/6, mouse, ip, 500 mg/kg. This is another data set of the same source.
Data set [25] is described as follows: in vivo. Particulars: C57BL/6, mouse, iv, 500 mg/kg.
In a further data set the test system is SCC-9. The experiment in a line: cells. The format is functional, cell-based. Particulars: Homo sapiens, SCC-9, 72 h.
Data set [26] is described as follows: in vivo. Particulars: C57BL/6, mouse, iv, 500 mg/kg. This is another data set of the same source.
Data set [27] is described as follows: Volume of distribution in C57BL/6 mouse at 500 mg/kg, iv administered as Antitumor B. The conditions noted are these: in vivo.
A short description of data set [28]: in vivo. Particulars: C57BL/6, mouse, ip, 500 mg/kg. The source holds these as a separate data set.
A short description of data set [29]: Clearance in C57BL/6 mouse at 500 mg/kg, iv administered as Antitumor B. Particulars: in vivo.
Data set [30] is described as follows: in vivo. The conditions noted are these: C57BL/6, mouse, po, 500 mg/kg. This is another data set of the same source.
Data set [31] can be described thus: Stability in mouse blood assessed as compound recovery measured at 25 degC for 4 hrs.
The conditions of data set [32]: mouse, in vivo, po, 500 mg/kg.
The conditions of data set [33]: mouse, in vivo, iv, 500 mg/kg, 24 h.

In brackets after ≈: the same amount, converted by molar mass. A value given as a limit tells only on which side of the number the result lay.

As usually defined, the Cmax is the highest concentration seen after dosing. What is called AUC is the area under the concentration-time curve, a measure of exposure. Read a high AUC as more exposure. As usually defined, the share remaining is the share of the starting amount still present when the sample was taken. What is called MRT last is the average time that molecules of a dose stay in the body. Broadly, the Tmax is the time from dosing to the highest level. The half-life is the time needed for the level to fall by half in the phase considered. Low readings indicate rapid decline, high ones slow decline. What is called IC50 is the concentration needed to halve the response being measured. Lower therefore signals inhibition by little substance. What is called AUC(0-inf) is total exposure, with the tail of the curve extrapolated. What is called MRT is the average time that molecules of a dose stay in the body. By Vd is commonly meant a proportionality between amount in the body and measured concentration, not a real space. A high value points to extensive tissue distribution. Turning to `O=C1CCC[C@@H]2[C@H]3CCCN4CCC[C@@H](CN12)[C@@H]34` [MATRINE], the Cmax is 709 ng/mL in the data set “in vivo [1]”; 53.8 ng/mL in “in vivo [3]”; 551.8 ng/mL in data set [12] (C57BL/6, mouse); 815.9 ng/mL in [17] (C57BL/6, mouse); 3930 ng/mL in “in vivo [25]”. In addition, the AUC in data set [2] (C57BL/6, mouse) came out at 120.5 ng·h/mL; in data set [10] it was 5170.7 ng·h/mL; in data set [14] (C57BL/6, mouse) it was 2254 ng·h/mL; in data set [16] (C57BL/6, mouse), 3667.7 ng·h/mL. Also, the amount remaining at 2920 h in data set [4] came out at 85%. Further, in data set [5], the share remaining at 8 h worked out at 85%. This molecule also returned a t1/2 in data set [6] (C57BL/6, mouse) of 8.2 h. This molecule yielded an AUC at 24 h in the data set “in vivo [7]” of 1480 ng·h/mL. Also, the mean residence time (MRT last) in “in vivo [8]” was 4.5 h; in the data set “in vivo [22]”, 3.6 h; in the data set “in vivo [26]”, 1.8 h. Further, the area under the curve (AUC) at 168 h in “in vivo [9]” amounted to 1650 ng·h/mL. Besides, the Tmax was 0.5 h in [11]; 0.2 h in data set [15] (C57BL/6, mouse); 0.4 h in the data set “in vivo [19]”; 0.7 h in the data set “in vivo [21]”. For the same molecule, the half-life in [13] was 3.8 h; in data set [18], 7.5 h; in [23] it was 7.5 h. The IC50 is 21 µg/mL (≈ 84.6 µM) in the data set with CAL-27 and > 100 µg/mL with SCC-9. For the same molecule, the AUC(0-inf) came out at 5370 ng·h/mL in the data set “in vivo [20]” and 124 ng·h/mL in “in vivo [30]”. Further, in “in vivo [24]”, the MRT at 24 h was determined as 5.3 h. For the same molecule, the Vd in [27] stood at 9.1 L/kg. This molecule displayed a mean residence time (MRT) at 168 h in the data set “in vivo [28]” of 8 h. In data set [29] (C57BL/6, mouse), this molecule yielded a CL of 13 mL/min/kg. Also, in [31], the amount remaining at 4 h amounted to 85%.

Regarding `Oc1ccc2c(c1)OCC1c3cc4c(cc3OC21)OCO4` (configuration not stated), the Cmax was found to be 16.4 ng/mL in the data set “in vivo [1]”; 0.5 ng/mL in the data set “in vivo [3]”; 17.2 ng/mL in [12] (mouse); 15.6 ng/mL in [17] (mouse); 67.5 ng/mL in “in vivo [25]”. The AUC in data set [2] (mouse) was 0.4 ng·h/mL; in [33], 68.9 ng·h/mL; in data set [10], 71.5 ng·h/mL; in data set [14] (mouse), 51.8 ng·h/mL; in [16] (mouse), 25.5 ng·h/mL. The share remaining at 2920 h in [4] worked out at 85%. In data set [32], this molecule showed an F of 4.6%. The fraction remaining at 8 h in data set [5] stood at 85%. Besides, in data set [6] (mouse), the t1/2 was 2.2 h. In addition, the AUC at 24 h in the data set “in vivo [7]” came to 5.6 ng·h/mL. Besides, the MRT last turned out to be 3.6 h in “in vivo [8]”, 0.6 h in the data set “in vivo [22]” and 3 h in the data set “in vivo [26]”. The AUC at 168 h in “in vivo [9]” was 47.4 ng·h/mL. Further, the values for the Tmax (in data set [15] (mouse); in the data set “in vivo [19]”; in the data set “in vivo [21]”) were 0.2 h, 0.6 h and 0.7 h, respectively. In addition, the IC50 with CAL-27 was 11.5 µg/mL (≈ 40.5 µM); with SCC-9, 94.9 µg/mL (≈ 334 µM). Further, the values for the half-life in [18] and in data set [23] were 3.5 h and 4.9 h, respectively. The molecule further gave a total exposure AUC(0-inf) in “in vivo [20]” of 27.5 ng·h/mL. In addition, the mean residence time MRT at 24 h in the data set “in vivo [24]” amounted to 0.3 h. The same molecule returned a Vd in [27] of 4.1 L/kg. In “in vivo [28]”, this molecule displayed an MRT at 168 h of 8.4 h. In addition, in data set [29] (mouse), the CL was found to be 10 mL/min/kg. Moreover, in data set [31], the share remaining at 4 h is 85%.

Turning to `O=c1[nH]cc(F)c(=O)[nH]1` [FLUOROURACIL], the IC50 with CAL-27 came out at 0.5 µg/mL (≈ 3.84 µM); in the data set with SCC-9, 12.7 µg/mL (≈ 97.6 µM).

In the case of `CC1=C2C(=O)O[C@@H](c3ccoc3)[C@]2(C)CCC1` [FRAXINELLONE], the values for the maximum concentration (Cmax) (in the data set “in vivo [1]”; in data set [17] (mouse); in the data set “in vivo [25]”) were 4.7 ng/mL, 4.1 ng/mL and 34.3 ng/mL, respectively. Further, in data set [4], the share remaining at 2920 h was determined as 85%. The molecule further yielded a F in [32] of 0.2%. The fraction remaining at 8 h in data set [5] turned out to be 85%. Further, the AUC at 24 h in “in vivo [7]” was found to be 2.7 ng·h/mL. Further, the figures for the MRT last in “in vivo [8]” and in the data set “in vivo [26]” were 0.4 h and 3.2 h, respectively. Besides, the results for the AUC in data set [33], in data set [10] and in [16] (mouse) were 95.2 ng·h/mL, 166.8 ng·h/mL and 1.1 ng·h/mL, respectively. The results for the half-maximal inhibitory concentration (IC50) in the data set on CAL-27 and in the data set on SCC-9 were 22.4 µg/mL (≈ 96.4 µM) and 43.4 µg/mL (≈ 187 µM), respectively. The time to peak (Tmax) in the data set “in vivo [21]” was found to be 0.5 h. Besides, the half-life in data set [23] was 5.2 h. This molecule gave a mean residence time MRT at 24 h in “in vivo [24]” of 0.6 h. This molecule also yielded a Vd in data set [27] of 2.9 L/kg. This molecule also gave a CL in data set [29] (mouse) of 6.7 mL/min/kg. Moreover, in [31], the fraction remaining at 4 h was 85%.

On to `COc1c2ccccc2nc2occc12` [DICTAMNINE], for which the share remaining at 2920 h in data set [4] turned out to be 85%. Also, in [5], the share remaining at 8 h came to 85%. For the same molecule, the AUC at 24 h in “in vivo [7]” is 1 ng·h/mL. The molecule further returned an AUC at 168 h in the data set “in vivo [9]” of 23.2 ng·h/mL. In addition, the half-maximal inhibitory concentration (IC50) with CAL-27 is 19.7 µg/mL (≈ 98.9 µM); with SCC-9 it was 27.8 µg/mL (≈ 140 µM). Moreover, the MRT at 24 h in the data set “in vivo [24]” was 0.4 h. In data set [27], this molecule yielded a Vd of 0.6 L/kg. This molecule gave a mean residence time MRT at 168 h in “in vivo [28]” of 11.7 h. For the same molecule, in data set [31], the fraction remaining at 4 h was found to be 85%.

For the origin of these results see ChEMBL document CHEMBL5036337 (J Nat Prod, 2021).
